Test results: ChEMBL document CHEMBL1269000, “Synthesis and biological evaluation of [D-lysine]8cyclosporin A analogs as potential anti-HCV agents” (Bioorg Med Chem Lett, 2010)

Key:
[1] = target: Peptidyl-prolyl cis-trans isomerase A (Homo sapiens, UniProt P62937); assay: Binding affinity to cyclophilin A by ELISA
[2] = target: Peptidyl-prolyl cis-trans isomerase B (Homo sapiens, UniProt P23284); assay: Binding affinity to cyclophilin B by ELISA
Jurkat = assay: Immunosuppressive activity against human Jurkat cells assessed as inhibition of phytohemagglutinin-M/phorbol myristate acetate-induced IL2 production; format: cell-based
Hepatitis C virus = assay: Antiviral activity against HCV after 72 hrs by stable luciferase reporter gene assay; format: functional, organism-based, Hepacivirus hominis
[3] = Cytotoxicity against human HuH7 cells assessed as release of lactate dehydrogenase; format: cell-based, Huh-7; conditions: for IC50: Homo sapiens, Huh-7; for IC90: human, HuH7 cells

Peptidyl-prolyl cis-trans isomerase B, sequence (P23284 whole entry): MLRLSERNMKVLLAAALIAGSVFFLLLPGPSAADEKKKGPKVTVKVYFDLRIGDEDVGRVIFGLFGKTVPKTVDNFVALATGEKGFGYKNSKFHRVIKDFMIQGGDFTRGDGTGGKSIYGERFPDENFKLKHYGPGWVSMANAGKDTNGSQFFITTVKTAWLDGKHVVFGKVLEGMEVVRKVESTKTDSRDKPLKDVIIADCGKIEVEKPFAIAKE
Peptidyl-prolyl cis-trans isomerase A, sequence (P62937 whole entry): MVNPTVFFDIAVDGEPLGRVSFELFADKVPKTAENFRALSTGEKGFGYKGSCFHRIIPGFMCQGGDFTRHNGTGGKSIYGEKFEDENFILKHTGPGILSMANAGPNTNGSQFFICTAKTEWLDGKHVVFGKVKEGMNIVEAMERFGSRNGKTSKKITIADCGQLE

Compound	IC50 [1]	IC50 [2]	EC50 (Jurkat)	EC50 (Hepatitis C virus)	EC90 (Hepatitis C virus)	IC50 [3]	IC90 [3]
C/C=C/C[C@@H](C)[C@@H](O)[C@H]1C(=O)N[C@@H](CC)C(=O)N(C)CC(=O)N(C)[C@@H](CC(C)C)C(=O)N[C@@H](C(C)C)C(=O)N(C)[C@@H](CC(C)C)C(=O)N[C@@H](C)C(=O)N[C@H](CNC(=O)OC(C)(C)C)C(=O)N(C)[C@@H](CC(C)C)C(=O)N(C)[C@@H](CC(C)C)C(=O)N(C)[C@@H](C(C)C)C(=O)N1C	83.5 nM	66.8 nM	50 nM	200 nM	480 nM	1720 nM	> 10000 nM
C/C=C/C[C@@H](C)[C@@H](O)[C@H]1C(=O)N[C@@H](CC)C(=O)N(C)CC(=O)N(C)[C@@H](CC(C)C)C(=O)N[C@@H](C(C)C)C(=O)N(C)[C@@H](CC(C)C)C(=O)N[C@@H](C)C(=O)N[C@H](CCNC(=O)C(C)(C)C)C(=O)N(C)[C@@H](CC(C)C)C(=O)N(C)[C@@H](CC(C)C)C(=O)N(C)[C@@H](C(C)C)C(=O)N1C	31.2 nM	26.1 nM	22 nM	140 nM	360 nM	2020 nM	> 10000 nM
C/C=C/C[C@@H](C)[C@@H](O)[C@H]1C(=O)N[C@@H](CC)C(=O)N(C)CC(=O)N(C)[C@@H](CC(C)C)C(=O)N[C@@H](C(C)C)C(=O)N(C)[C@@H](CC(C)C)C(=O)N[C@@H](C)C(=O)N[C@H](CCCNC(=O)C(C)(C)C)C(=O)N(C)[C@@H](CC(C)C)C(=O)N(C)[C@@H](CC(C)C)C(=O)N(C)[C@@H](C(C)C)C(=O)N1C	26.7 nM	30.5 nM	21 nM	120 nM	310 nM	2070 nM	> 10000 nM
C/C=C/C[C@@H](C)[C@@H](O)[C@H]1C(=O)N[C@@H](CC)C(=O)N(C)CC(=O)N(C)[C@@H](CC(C)C)C(=O)N[C@@H](C(C)C)C(=O)N(C)[C@@H](CC(C)C)C(=O)N[C@@H](C)C(=O)N[C@H](CCCCNC(=O)C(C)(C)C)C(=O)N(C)[C@@H](CC(C)C)C(=O)N(C)[C@@H](CC(C)C)C(=O)N(C)[C@@H](C(C)C)C(=O)N1C	22.8 nM	20.6 nM	121 nM	160 nM	300 nM	2560 nM	> 10000 nM
C/C=C/C[C@@H](C)[C@@H](O)[C@H]1C(=O)N[C@@H](CC)C(=O)N(C)CC(=O)N(C)[C@@H](CC(C)C)C(=O)N[C@@H](C(C)C)C(=O)N(C)[C@@H](CC(C)C)C(=O)N[C@@H](C)C(=O)N[C@H](CC#N)C(=O)N(C)[C@@H](CC(C)C)C(=O)N(C)[C@@H](CC(C)C)C(=O)N(C)[C@@H](C(C)C)C(=O)N1C	9.12 nM	9.45 nM	5.1 nM	40 nM	140 nM	2820 nM	> 10000 nM
C/C=C/C[C@@H](C)[C@@H](O)[C@H]1C(=O)N[C@@H](CC)C(=O)N(C)CC(=O)N(C)[C@@H](CC(C)C)C(=O)N[C@@H](C(C)C)C(=O)N(C)[C@@H](CC(C)C)C(=O)N[C@@H](C)C(=O)N[C@H](CCC#N)C(=O)N(C)[C@@H](CC(C)C)C(=O)N(C)[C@@H](CC(C)C)C(=O)N(C)[C@@H](C(C)C)C(=O)N1C	23 nM	24.2 nM	12 nM	100 nM	270 nM	2370 nM	> 10000 nM
C/C=C/C[C@@H](C)[C@@H](O)[C@H]1C(=O)N[C@@H](CC)C(=O)N(C)CC(=O)N(C)[C@@H](CC(C)C)C(=O)N[C@@H](C(C)C)C(=O)N(C)[C@@H](CC(C)C)C(=O)N[C@@H](C)C(=O)N[C@H](CN)C(=O)N(C)[C@@H](CC(C)C)C(=O)N(C)[C@@H](CC(C)C)C(=O)N(C)[C@@H](C(C)C)C(=O)N1C	103 nM	79.7 nM	13 nM	300 nM	820 nM	4610 nM	> 10000 nM
C/C=C/C[C@@H](C)[C@@H](O)[C@H]1C(=O)N[C@@H](CC)C(=O)N(C)CC(=O)N(C)[C@@H](CC(C)C)C(=O)N[C@@H](C(C)C)C(=O)N(C)[C@@H](CC(C)C)C(=O)N[C@@H](C)C(=O)N[C@H](CCN)C(=O)N(C)[C@@H](CC(C)C)C(=O)N(C)[C@@H](CC(C)C)C(=O)N(C)[C@@H](C(C)C)C(=O)N1C	218 nM	151 nM	90 nM	660 nM	2350 nM	5300 nM	> 10000 nM
C/C=C/C[C@@H](C)[C@@H](O)[C@H]1C(=O)N[C@@H](CC)C(=O)N(C)CC(=O)N(C)[C@@H](CC(C)C)C(=O)N[C@@H](C(C)C)C(=O)N(C)[C@@H](CC(C)C)C(=O)N[C@@H](C)C(=O)N[C@H](CCCN)C(=O)N(C)[C@@H](CC(C)C)C(=O)N(C)[C@@H](CC(C)C)C(=O)N(C)[C@@H](C(C)C)C(=O)N1C	662 nM	1580 nM	111 nM	1890 nM	6740 nM	> 10000 nM	> 10000 nM
C/C=C/C[C@@H](C)[C@@H](O)[C@H]1C(=O)N[C@@H](CC)C(=O)N(C)CC(=O)N(C)[C@@H](CC(C)C)C(=O)N[C@@H](C(C)C)C(=O)N(C)[C@@H](CC(C)C)C(=O)N[C@@H](C)C(=O)N[C@H](CCCCN)C(=O)N(C)[C@@H](CC(C)C)C(=O)N(C)[C@@H](CC(C)C)C(=O)N(C)[C@@H](C(C)C)C(=O)N1C	11.1 nM	12.7 nM	94 nM	1000 nM	2850 nM	> 10000 nM	> 10000 nM
C/C=C/C[C@@H](C)[C@@H](O)[C@H]1C(=O)N[C@@H](CC)C(=O)N(C)CC(=O)N(C)[C@@H](CC(C)C)C(=O)N[C@@H](C(C)C)C(=O)N(C)[C@@H](CC(C)C)C(=O)N[C@@H](C)C(=O)N[C@H](CN(C)C)C(=O)N(C)[C@@H](CC(C)C)C(=O)N(C)[C@@H](CC(C)C)C(=O)N(C)[C@@H](C(C)C)C(=O)N1C	22.9 nM	25.2 nM	20 nM	190 nM	670 nM	2050 nM	> 10000 nM
C/C=C/C[C@@H](C)[C@@H](O)[C@H]1C(=O)N[C@@H](CC)C(=O)N(C)CC(=O)N(C)[C@@H](CC(C)C)C(=O)N[C@@H](C(C)C)C(=O)N(C)[C@@H](CC(C)C)C(=O)N[C@@H](C)C(=O)N[C@H](CCN(C)C)C(=O)N(C)[C@@H](CC(C)C)C(=O)N(C)[C@@H](CC(C)C)C(=O)N(C)[C@@H](C(C)C)C(=O)N1C	46 nM	59.5 nM	24 nM	170 nM	300 nM	3280 nM	> 10000 nM
C/C=C/C[C@@H](C)[C@@H](O)[C@H]1C(=O)N[C@@H](CC)C(=O)N(C)CC(=O)N(C)[C@@H](CC(C)C)C(=O)N[C@@H](C(C)C)C(=O)N(C)[C@@H](CC(C)C)C(=O)N[C@@H](C)C(=O)N[C@H](CCCN(C)C)C(=O)N(C)[C@@H](CC(C)C)C(=O)N(C)[C@@H](CC(C)C)C(=O)N(C)[C@@H](C(C)C)C(=O)N1C	35.2 nM	28.9 nM	39 nM	140 nM	380 nM	2150 nM	8730 nM
C/C=C/C[C@@H](C)[C@@H](O)[C@H]1C(=O)N[C@@H](CC)C(=O)N(C)CC(=O)N(C)[C@@H](CC(C)C)C(=O)N[C@@H](C(C)C)C(=O)N(C)[C@@H](CC(C)C)C(=O)N[C@@H](C)C(=O)N[C@H](CCCCN(C)C)C(=O)N(C)[C@@H](CC(C)C)C(=O)N(C)[C@@H](CC(C)C)C(=O)N(C)[C@@H](C(C)C)C(=O)N1C	14 nM	97.1 nM	332 nM	140 nM	300 nM	2810 nM	> 10000 nM
C/C=C/C[C@@H](C)[C@@H](O)[C@H]1C(=O)N[C@@H](CC)C(=O)N(C)CC(=O)N(C)[C@@H](CC(C)C)C(=O)N[C@@H](C(C)C)C(=O)N(C)[C@@H](CC(C)C)C(=O)N[C@@H](C)C(=O)N[C@H](C)C(=O)N(C)[C@@H](CC(C)C)C(=O)N(C)[C@@H](CC(C)C)C(=O)N(C)[C@@H](C(C)C)C(=O)N1C [CYCLOSPORINE]	–	–	6.7 nM	370 nM	910 nM	–	–
C/C=C/C[C@@H](C)[C@@H](O)[C@H]1C(=O)N[C@@H](CC)C(=O)N(C)[C@H](SCCN(C)C)C(=O)N(C)[C@@H](CC(C)(C)O)C(=O)N[C@@H](C(C)C)C(=O)N(C)[C@@H](CC(C)C)C(=O)N[C@@H](C)C(=O)N[C@H](C)C(=O)N(C)[C@@H](CC(C)C)C(=O)N(C)[C@@H](CC(C)C)C(=O)N(C)[C@@H](C(C)C)C(=O)N1C [SCY 635]	–	10.3 nM	4210 nM	50 nM	240 nM	> 10000 nM	> 10000 nM
